# Measurements published in patent publication US20110237686A1, “FORMULATIONS AND METHODS OF USE” (Cerulean Pharma Inc, priority 2010, published 2011).
# Values joined by “and” are separate entries in the source; they are usually repeats but may differ in a detail not shown here. Equal entries are not always repeated.
# Assays:
# B16.F10 cells = assay: CellTiter-Glo Luminescent Cell Viability Assay (cytotoxicity of nanoparticles); type: cell-based, mouse; details: Mus musculus; B16.F10 cells; 24, 48 and 72 hours of incubation tested, time of the IC50 not stated
# Method: The Cytotoxicity of nanoparticles formed from polymer drug conjugates was evaluated using the following protocol. […] B16.F10 cells, grown to 85-90% confluency in 150 cm^2 flasks (passage<30), were resuspended in media (MEM-alpha, 10% HI-FBS, 1× antibiotic-antimycotic) and added to 96-well opaque-clear bottom plates at a concentration of 1500 cells/well in 200 μL/well. The cells were incubated at 37° C. with 5% CO2 for 24 hours. The following day, serial dilutions of 2×concentrated particles and 2× concentrated free drug were made in 12-well reservoirs with media to specified concentrations. The media in the plates was replaced with 100 μL of fresh media and 100 μL of the corresponding serially diluted drug. Three sets of plates were prepared with duplicate treatments. Following 24, 48 and 72 hours of incubation at 37° C. with 5% CO2, the media in the plates was replaced with 100 μL of fresh media and […] of CTG solution, and then incubated for 5 minutes on a plate shaker at room temperature set to 450 rpm and allowed to rest for 15 minutes. Viable cells were measured by luminescence using a microtiter plate reader. The data was plotted as % viability vs. concentration and standardized to untreated cells.
# [1] = system: B16.F10 murine melanoma model; assay: Efficacy and tolerability of PEGylated docetaxel-5050 PLGA-O-acetyl nanoparticles in B16.F10 murine melanoma model; type: in vivo, mouse
# Method: Refer to table for detailed description of formulations.
# Tumor volume was calculated with the following equation: (width×width×length)/2 mm3.
# [2] = system: HCT-116 colon xenograft model; assay: In vivo efficacy in HCT-116 colon xenograft model; parameters: species or system mouse; details: 30 mg/kg IV; male CD-1 nude mice
# Method: HCT-116 cells were grown in culture to confluency in McCoy's 5a medium containing 10% FBS and 1% penicillin/streptomycin and then resuspended in McCoy's 5a (passage 4).
# The treatments were administered 1V into the tail vein at the respective dose volumes (refer to previous paragraph), beginning on post-implantation Day 13, when the mean tumor volume was 131 mm3.
# [3] = system: SK-OV-3 ovarian human xenograft model; assay: In vivo efficacy in SK-OV-3 ovarian human xenograft model; parameters: species or system mouse
# Method: SK-OV-3 cells were grown in culture to confluency in RPMI medium containing 10% FBS and 1% penicillin/streptomycin and then resuspended in RPMI (passage 4) for implantation into mice. […]
# [4] = system: MDA-MB-435 melanoma human xenograft model; assay: In vivo efficacy in MDA-MB-435 melanoma human xenograft model; parameters: species or system mouse
# Method: MDA-MB-435 cells were grown in culture to confluency in RPMI medium containing 10% FBS and 1% penicillin/streptomycin and then resuspended in RPMI (passage 4) for implantation into mice. A volume of 0.1 mL containing 4.0×10^6 cells MDA-MB-435 cells were implanted into the mammary gland of female CD-1 nude mice on Day 1.
# [5] = system: normal male C57BL/6 non-tumor-bearing mice; assay: Tolerability in normal non-tumor-bearing mice (body weight, CBC, serum chemistry, ataxia, sciatic nerve histology); type: in vivo, mouse; details: for Lymphocyte mean / Neutrophil mean / WBC # mean: blood Day 14; for mice developing ataxia / Ataxia (%): n=5/group; for Ataxia (%): intravenous q7d×2, male C57BL/6 mice, to Day 14
# Method: Treatments were administered intravenously on a q7d×2 schedule, i.e., two treatments seven days apart (the first treatment was on Day one). The study ended on Day 14, six days after the 2nd treatment. Blood was collected for complete blood count (CBC) and serum chemistry. Leg muscles were collected so that nerve degeneration could be assessed from the sciatic nerve.
# [6] = q4dq3dx3, 15 mg/kg IV, male C57BL/6 mice
# [7] = q7d schedule, three times once every week, 15 mg/kg
compound,measurement,setting,value
"CC(=O)O[C@@]12CO[C@@H]1C[C@H](O)[C@@]1(C)C(=O)[C@H](O)C3=C(C)[C@@H](OC(=O)[C@H](O)[C@@H](NC(=O)OC(C)(C)C)c4ccccc4)C[C@@](O)([C@@H](OC(=O)c4ccccc4)[C@H]21)C3(C)C [Free docetaxel, docetaxel]",IC50,B16.F10 cells,130 nM
same,Maximum body weight loss,"[1]; q3dq4dx3, 15 mg/kg IV, male C57BL/6 mice, listed as Docetaxel",12% and 11%
same,Maximum body weight loss,"[1]; q3dq4dx3, 15 mg/kg IV, male C57BL/6 mice, listed as docetaxel",12% and 11%
same,Maximum body weight loss,[1]; [6],11%
same,Tumor growth delay (TGD),[1]; [6],11 days
same,Tumor growth inhibition (TGI),[1]; [6],90%
same,Maximum body weight loss,"[1]; q7dx3, 30 mg/kg IV, male C57BL/6 mice",11%
same,Maximum body weight loss,"[1]; q14dx2, 60 mg/kg IV, male C57BL/6 mice, listed as Docetaxel",0%
same,Maximum body weight loss,"[1]; q14dx2, 60 mg/kg IV, male C57BL/6 mice, listed as docetaxel",did not show any body weight loss
same,Maximum body weight loss,[1]; [7],11%
same,TGD,[1]; [7],11 days
same,Maximum body weight loss,[2],14%
same,Maximum body weight loss,[3]; 30 mg/kg weekly×2,13%
same,ataxia,[3]; 30 mg/kg weekly×2,did not cause ataxia
same,body weight loss,"[3]; 60 mg/kg IV Days 51 and 58 (weekly×2), female CD-1 nude mice",greater than 20%
same,ataxia,"[3]; 60 mg/kg weekly×2, four days after the second treatment",observed in all the mice
same,Maximum body weight loss,[4]; 15 mg/kg IV Days 21 and 28 (weekly×2),10%
same,Maximum body weight loss,[4]; 30 mg/kg IV Days 21 and 28 (weekly×2),14%
same,ataxia,[4]; 30 mg/kg weekly×2,did not cause ataxia
same,body weight loss,"[4]; 60 mg/kg IV Days 21 and 28 (weekly×2), female CD-1 nude mice",greater than 20%
same,ataxia,"[4]; 60 mg/kg weekly×2, listed as docetaxel",developed ataxia
same,ataxia,"[4]; 60 mg/kg weekly×2, listed as free docetaxel",Ataxia was observed
same,body weight above initial on Day 14,[5]; 30 mg/kg IV q7d×2,3%
same,Lymphocyte mean,[5]; 30 mg/kg IV q7d×2,4350 cells/μL
same,Neutrophil mean,[5]; 30 mg/kg IV q7d×2,556 cells/μL
same,WBC # mean,[5]; 30 mg/kg IV q7d×2,5.1 ×1000 cells/μL
same,mice developing ataxia,[5]; 30 mg/kg IV q7d×2,no mice
same,body weight above initial on Day 14,[5]; 45 mg/kg IV q7d×2,2%
same,Lymphocyte mean,[5]; 45 mg/kg IV q7d×2,6780 cells/μL
same,Neutrophil mean,[5]; 45 mg/kg IV q7d×2,752 cells/μL
same,WBC # mean,[5]; 45 mg/kg IV q7d×2,7.8 ×1000 cells/μL
same,mice developing ataxia,"[5]; 45 mg/kg IV q7d×2, Day 14",One mouse
same,"body weight lost after the second treatment, by the end of the study","[5]; 60 mg/kg IV q7d×2, Day 14",19%
same,Lymphocyte mean,[5]; 60 mg/kg IV q7d×2,5590 cells/μL
same,Neutrophil mean,[5]; 60 mg/kg IV q7d×2,470 cells/μL
same,WBC # mean,[5]; 60 mg/kg IV q7d×2,6.2 ×1000 cells/μL
same,mice developing ataxia,[5]; 60 mg/kg IV q7d×2,Five out of five mice
same,Ataxia (%),[5]; dose 30 mg/kg,0%
same,Ataxia (%),[5]; dose 45 mg/kg,20%
same,Ataxia (%),[5]; dose 60 mg/kg,100%
same,serum chemistry parameters,[5]; doses up to 60 mg/kg,did not affect any serum chemistry parameter
